Data published in ChEMBL document CHEMBL4665812, “Targeting Her2-insYVMA with Covalent Inhibitors-A Focused Compound Screening and Structure-Based Design Approach” (J Med Chem, 2020).
Values after ≈ are worked out from the molar mass of the structure shown. Active and inactive are the calls of the source. The calls are words filed in the database; no cut-off is given here.

Assays:
[1] = molecular target: Epidermal growth factor receptor (Homo sapiens, UniProt P00533); assay: Inhibition of human N-terminal GST-tagged EGFR (669 to 1210 residues) expressed in baculovirus infected Sf9 insect cells using TK as substrate preincubated for 30 mins followed by substrate addition and measured after 25 mins by HTRF assay
Chain of Epidermal growth factor receptor (Homo sapiens, UniProt P00533) (P00533 whole entry, the tested form may be a part): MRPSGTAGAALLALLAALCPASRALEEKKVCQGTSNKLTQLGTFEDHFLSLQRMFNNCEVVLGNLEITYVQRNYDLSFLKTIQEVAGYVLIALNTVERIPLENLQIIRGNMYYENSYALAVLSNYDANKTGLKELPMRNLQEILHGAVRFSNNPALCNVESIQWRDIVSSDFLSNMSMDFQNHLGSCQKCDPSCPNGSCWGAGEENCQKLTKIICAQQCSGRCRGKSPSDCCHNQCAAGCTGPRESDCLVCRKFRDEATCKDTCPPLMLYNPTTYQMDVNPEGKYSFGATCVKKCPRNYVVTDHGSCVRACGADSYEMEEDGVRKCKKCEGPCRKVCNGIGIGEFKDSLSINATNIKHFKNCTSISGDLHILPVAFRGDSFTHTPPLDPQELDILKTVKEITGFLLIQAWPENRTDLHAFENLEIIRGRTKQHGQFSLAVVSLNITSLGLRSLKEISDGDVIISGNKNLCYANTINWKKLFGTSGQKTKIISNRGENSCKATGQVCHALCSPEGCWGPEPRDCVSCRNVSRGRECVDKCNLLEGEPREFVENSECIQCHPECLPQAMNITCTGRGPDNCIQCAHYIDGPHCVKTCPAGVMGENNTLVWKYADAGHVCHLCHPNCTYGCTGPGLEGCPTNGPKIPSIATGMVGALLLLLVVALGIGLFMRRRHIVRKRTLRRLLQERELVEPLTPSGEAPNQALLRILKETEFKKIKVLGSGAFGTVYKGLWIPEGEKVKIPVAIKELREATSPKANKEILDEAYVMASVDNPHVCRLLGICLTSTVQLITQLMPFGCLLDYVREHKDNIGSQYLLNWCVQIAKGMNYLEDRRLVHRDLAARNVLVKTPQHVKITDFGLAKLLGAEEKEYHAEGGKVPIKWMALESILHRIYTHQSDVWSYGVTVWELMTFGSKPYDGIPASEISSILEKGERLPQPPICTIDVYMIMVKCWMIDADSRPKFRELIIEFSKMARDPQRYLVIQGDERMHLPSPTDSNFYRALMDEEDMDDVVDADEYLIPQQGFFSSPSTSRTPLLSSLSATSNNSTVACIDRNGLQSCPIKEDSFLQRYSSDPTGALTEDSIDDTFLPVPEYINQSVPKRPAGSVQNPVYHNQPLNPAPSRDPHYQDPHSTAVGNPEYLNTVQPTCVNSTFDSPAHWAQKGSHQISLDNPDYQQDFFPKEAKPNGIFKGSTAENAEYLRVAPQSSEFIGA

cells = assay type: cell-based; conditions: Homo sapiens, NCI-H1781, 96 h
Description: Inhibition of HER2-G776delinsVC mutant (unknown origin) expressed in human H1781 cells assessed as reduction in HER2 induced cell viability after 96 hrs by CellTiter-Glo assay

[2] = Stability of compound in mouse plasma assessed as parent compound remaining at 5 uM measured for 1 hr by LC-MS analysis; assay type: ADME, cell-free; conditions: read-out: Stabilty
[3] = Inhibition of C-terminal His6-tagged HER2-A775_G776insYVMA mutant (703 to 1029 residues) (unknown origin) expressed in Sf9 insect cells using TK as substrate measured up to 2 to 40 mins by fluorescence assay; design: species or system Homo sapiens
[4] = Kinetic solubility of compound in HEPES buffer a pH 7.4 at 500 uM after 90 mins; assay type: physicochemical; conditions: read-out: Kinetic_solubility
[5] = molecular target: T1, Receptor tyrosine-protein kinase erbB-2 (Homo sapiens, UniProt P04626); assay: Inhibition of HER2 in human H1781 cells assessed as reduction in HER2 phosphorylation at Y1248 residues after 1 hrs by Western blot analysis; assay type: cell-based; conditions: dose nM 10-500, time 1.0 hrs
T1 sequence (P04626 whole entry): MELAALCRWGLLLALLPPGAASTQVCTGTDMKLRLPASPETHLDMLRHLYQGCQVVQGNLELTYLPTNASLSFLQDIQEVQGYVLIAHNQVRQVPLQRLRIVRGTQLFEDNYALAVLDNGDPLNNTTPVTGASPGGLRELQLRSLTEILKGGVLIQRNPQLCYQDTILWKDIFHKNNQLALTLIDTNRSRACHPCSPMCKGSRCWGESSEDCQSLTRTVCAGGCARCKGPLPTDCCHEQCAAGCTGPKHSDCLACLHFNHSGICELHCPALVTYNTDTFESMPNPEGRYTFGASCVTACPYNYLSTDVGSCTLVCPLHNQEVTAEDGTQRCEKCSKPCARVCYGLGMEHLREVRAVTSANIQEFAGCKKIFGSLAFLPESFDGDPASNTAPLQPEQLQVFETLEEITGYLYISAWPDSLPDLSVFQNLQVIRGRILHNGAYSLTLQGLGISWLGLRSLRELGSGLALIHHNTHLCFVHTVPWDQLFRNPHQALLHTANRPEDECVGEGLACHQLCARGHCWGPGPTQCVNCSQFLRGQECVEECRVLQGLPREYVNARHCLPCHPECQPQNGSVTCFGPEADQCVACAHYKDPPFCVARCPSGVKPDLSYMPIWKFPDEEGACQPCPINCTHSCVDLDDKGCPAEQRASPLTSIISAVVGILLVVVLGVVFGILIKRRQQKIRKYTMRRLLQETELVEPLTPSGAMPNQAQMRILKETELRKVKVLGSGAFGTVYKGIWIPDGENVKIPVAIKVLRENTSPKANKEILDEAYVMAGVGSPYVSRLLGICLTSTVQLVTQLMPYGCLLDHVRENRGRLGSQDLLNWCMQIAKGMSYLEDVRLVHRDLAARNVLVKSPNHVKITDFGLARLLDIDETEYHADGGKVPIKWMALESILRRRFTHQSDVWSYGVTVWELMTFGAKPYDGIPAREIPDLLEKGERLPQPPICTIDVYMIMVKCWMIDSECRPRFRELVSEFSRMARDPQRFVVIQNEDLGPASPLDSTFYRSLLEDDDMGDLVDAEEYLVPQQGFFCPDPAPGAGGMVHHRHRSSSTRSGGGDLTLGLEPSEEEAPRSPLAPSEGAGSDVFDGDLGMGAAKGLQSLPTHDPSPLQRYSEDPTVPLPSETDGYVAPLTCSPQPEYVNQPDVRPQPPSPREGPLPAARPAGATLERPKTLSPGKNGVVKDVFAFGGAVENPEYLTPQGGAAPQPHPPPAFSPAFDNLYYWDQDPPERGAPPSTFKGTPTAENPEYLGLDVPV

[6] = molecular target: T1, Receptor tyrosine-protein kinase erbB-2; assay: Inhibition of HER2 in human H1781 cells assessed as reduction in HER2 phosphorylation at Y1221/1222 residues after 1 hrs by Western blot analysis; assay type: cell-based; conditions: dose nM 10-500, time 1.0 hrs
[7] = Intrinsic clearance in mouse liver microsomes at 1 uM measured up to 60 mins by LC-MS analysis; assay type: ADME, Microsome; conditions: read-out: CLH
Homo sapiens [8] = organism: Homo sapiens; assay: Inhibition of MAPK phosphorylation at T202/204 residues in human H1781 cells after 1 hrs by Western blot analysis; assay type: cell-based; conditions: dose nM 10-500, time 1.0 hrs
Homo sapiens [9] = organism: Homo sapiens; assay: Inhibition of S6 phosphorylation at T202/204 residues in human H1781 cells after 1 hrs by Western blot analysis; assay type: cell-based; conditions: dose nM 10-500, time 1.0 hrs
[10] = molecular target: Serine/threonine-protein kinase AKT (Homo sapiens) (UniProt P31751+Q9Y243+P31749); assay: Inhibition of AKT phosphorylation at S473 residues in human H1781 cells after 1 hrs by Western blot analysis; assay type: cell-based; conditions: dose nM 10-500, time 1.0 hrs
Chain of Serine/threonine-protein kinase AKT (Homo sapiens) (P31749 whole entry, looked up, the tested form may be a part): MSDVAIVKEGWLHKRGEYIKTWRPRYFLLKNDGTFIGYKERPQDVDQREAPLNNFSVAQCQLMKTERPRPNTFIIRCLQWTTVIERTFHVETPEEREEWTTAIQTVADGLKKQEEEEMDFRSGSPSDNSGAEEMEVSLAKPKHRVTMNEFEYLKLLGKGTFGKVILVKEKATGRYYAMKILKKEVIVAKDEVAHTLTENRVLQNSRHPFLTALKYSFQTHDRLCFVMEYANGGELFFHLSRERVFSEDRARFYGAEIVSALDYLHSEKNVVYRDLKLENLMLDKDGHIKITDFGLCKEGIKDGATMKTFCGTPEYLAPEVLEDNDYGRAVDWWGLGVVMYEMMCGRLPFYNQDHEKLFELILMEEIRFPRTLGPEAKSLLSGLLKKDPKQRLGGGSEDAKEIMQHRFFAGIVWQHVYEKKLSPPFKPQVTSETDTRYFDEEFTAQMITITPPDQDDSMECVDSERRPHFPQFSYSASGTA
Chain of Serine/threonine-protein kinase AKT (Homo sapiens) (P31751 whole entry, looked up, the tested form may be a part): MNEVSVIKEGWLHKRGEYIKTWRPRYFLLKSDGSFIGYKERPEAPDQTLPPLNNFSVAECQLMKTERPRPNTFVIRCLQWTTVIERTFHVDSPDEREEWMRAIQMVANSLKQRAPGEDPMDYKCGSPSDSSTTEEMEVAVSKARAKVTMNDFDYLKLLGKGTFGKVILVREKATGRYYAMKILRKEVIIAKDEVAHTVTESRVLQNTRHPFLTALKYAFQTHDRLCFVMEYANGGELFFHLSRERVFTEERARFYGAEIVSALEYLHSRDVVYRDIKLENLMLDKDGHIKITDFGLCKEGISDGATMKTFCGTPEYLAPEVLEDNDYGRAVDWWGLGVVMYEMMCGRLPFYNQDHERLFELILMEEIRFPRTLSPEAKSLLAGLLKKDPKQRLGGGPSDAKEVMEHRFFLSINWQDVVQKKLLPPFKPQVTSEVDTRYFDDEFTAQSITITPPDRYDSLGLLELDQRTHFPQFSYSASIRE
Chain of Serine/threonine-protein kinase AKT (Homo sapiens) (Q9Y243 whole entry, looked up, the tested form may be a part): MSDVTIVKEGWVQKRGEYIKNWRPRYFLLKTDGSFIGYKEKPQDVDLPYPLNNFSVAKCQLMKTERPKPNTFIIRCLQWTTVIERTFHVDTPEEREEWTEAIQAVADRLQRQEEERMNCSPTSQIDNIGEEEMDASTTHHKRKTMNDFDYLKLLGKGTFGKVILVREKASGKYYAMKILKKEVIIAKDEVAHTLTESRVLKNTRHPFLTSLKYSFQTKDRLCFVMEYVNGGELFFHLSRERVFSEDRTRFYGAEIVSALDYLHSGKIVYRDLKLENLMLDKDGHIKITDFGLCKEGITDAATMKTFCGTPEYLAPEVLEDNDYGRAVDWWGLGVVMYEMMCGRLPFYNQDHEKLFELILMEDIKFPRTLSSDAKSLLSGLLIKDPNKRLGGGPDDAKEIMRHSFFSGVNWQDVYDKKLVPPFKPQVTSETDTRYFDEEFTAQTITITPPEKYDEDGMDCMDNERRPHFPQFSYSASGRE

[11] = molecular target: T1, Receptor tyrosine-protein kinase erbB-2; assay: Inhibition of C-terminal His6-tagged HER2 (703 to 1029 residues) (unknown origin) expressed in Sf9 insect cells using TK as substrate preincubated for 30 mins followed by substrate addition and measured after 60 mins in presence of XL665-labeled streptavidin by HTRF assay
[12] = Solubility of compound in aqueous buffer at pH 7.4 after 120 mins by turbidometric assay; assay type: physicochemical
[13] = Inhibition of C-terminal His6-tagged HER2-A775_G776insYVMA mutant (703 to 1029 residues) (unknown origin) expressed in Sf9 insect cells assessed as Kinact using TK as substrate measured up to 2 to 40 mins by fluorescence assay; conditions: Homo sapiens, time min 2-40
[14] = Apparent permeability across basolateral side to apical side in human Caco-2 cells at 5 uM after 2 hrs by transwell assay; assay type: ADME, cell-based; conditions: read-out: permeability
[15] = molecular target: Epidermal growth factor receptor (Homo sapiens, UniProt P00533, L858R/T790M); assay: Inhibition of human N-terminal GST-tagged EGFR L858R/T790M mutant (669 to 1210 residues) expressed in baculovirus infected Sf9 insect cells using TK as substrate preincubated for 30 mins followed by substrate addition and measured after 20 mins by HTRF assay
[16] = Inhibition of HER2-A775_G776insYVMA mutant (unknown origin) expressed in mouse BaF3 cells assessed as reduction in HER2 induced cell viability after 96 hrs by CellTiter-Glo assay; assay type: cell-based; conditions: BaF3, 96 h
[17] = Apparent permeability across apical side to basolateral side in human Caco-2 cells at 5 uM after 2 hrs by transwell assay; assay type: ADME, cell-based; conditions: read-out: permeability
[18] = Stability of compound in human plasma assessed as parent compound remaining at 5 uM measured for 1 hr by LC-MS analysis; assay type: ADME, cell-free; conditions: read-out: Stabilty
[19] = Ratio of apparent permeability across basolateral to apical over apical to basolateral side in human Caco2 cells at 5 uM after 2 hrs by transwell assay; assay type: ADME, cell-based; conditions: Caco-2
[20] = molecular target: Epidermal growth factor receptor (Homo sapiens, UniProt P00533, L858R); assay: Inhibition of human N-terminal GST-tagged EGFR L858R mutant (669 to 1210 residues) expressed in baculovirus infected Sf9 insect cells using TK as substrate preincubated for 30 mins followed by substrate addition and measured after 15 mins by HTRF assay
Chain of Epidermal growth factor receptor (Homo sapiens, UniProt P00533, L858R) (P00533 25-1210 L858R limits assumed): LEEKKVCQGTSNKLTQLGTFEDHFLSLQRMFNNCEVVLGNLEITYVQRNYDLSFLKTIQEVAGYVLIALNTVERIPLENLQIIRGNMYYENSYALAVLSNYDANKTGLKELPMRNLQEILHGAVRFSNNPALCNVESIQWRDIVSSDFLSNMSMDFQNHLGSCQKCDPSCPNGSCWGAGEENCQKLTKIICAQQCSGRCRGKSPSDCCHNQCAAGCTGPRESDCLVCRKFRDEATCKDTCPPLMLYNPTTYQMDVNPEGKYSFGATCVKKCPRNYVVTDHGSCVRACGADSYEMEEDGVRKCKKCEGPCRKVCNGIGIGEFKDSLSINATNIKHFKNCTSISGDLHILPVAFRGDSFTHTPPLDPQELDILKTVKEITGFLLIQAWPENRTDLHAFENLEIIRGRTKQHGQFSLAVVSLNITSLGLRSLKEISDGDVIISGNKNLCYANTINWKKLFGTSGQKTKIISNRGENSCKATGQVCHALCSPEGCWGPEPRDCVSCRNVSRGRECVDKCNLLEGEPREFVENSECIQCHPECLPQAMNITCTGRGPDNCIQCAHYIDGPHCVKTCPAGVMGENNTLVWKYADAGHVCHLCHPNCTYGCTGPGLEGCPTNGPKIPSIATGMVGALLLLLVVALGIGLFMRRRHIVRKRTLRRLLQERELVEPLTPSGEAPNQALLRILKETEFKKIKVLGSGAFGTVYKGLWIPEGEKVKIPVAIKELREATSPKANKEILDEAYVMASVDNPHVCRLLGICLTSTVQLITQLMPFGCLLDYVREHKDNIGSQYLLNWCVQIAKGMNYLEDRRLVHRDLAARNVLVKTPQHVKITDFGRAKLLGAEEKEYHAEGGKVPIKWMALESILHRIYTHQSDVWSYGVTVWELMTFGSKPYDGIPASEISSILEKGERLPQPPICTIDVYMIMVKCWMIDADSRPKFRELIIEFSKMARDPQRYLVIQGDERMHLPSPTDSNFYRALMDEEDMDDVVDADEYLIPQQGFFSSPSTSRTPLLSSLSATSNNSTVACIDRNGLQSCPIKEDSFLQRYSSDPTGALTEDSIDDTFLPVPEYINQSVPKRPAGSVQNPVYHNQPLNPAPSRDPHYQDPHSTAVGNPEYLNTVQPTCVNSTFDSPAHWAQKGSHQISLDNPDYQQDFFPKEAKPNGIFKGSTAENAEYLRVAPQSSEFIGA

[21] = Intrinsic clearance in human liver microsomes at 1 uM measured up to 50 mins by LC-MS analysis; assay type: ADME, Microsome; conditions: read-out: CLH
[22] = molecular target: T1, Receptor tyrosine-protein kinase erbB-2; assay: Inhibition of HER2 in human H1781 cells assessed as reduction in HER2 phosphorylation at Y1248 residues at 100 to 500 nM after 1 hrs by Western blot analysis; assay type: cell-based; conditions: dose nM 100-500, time 1.0 hrs
[23] = molecular target: T1, Receptor tyrosine-protein kinase erbB-2; assay: Inhibition of HER2 in human H1781 cells assessed as reduction in HER2 phosphorylation at Y1221/1222 residues at 100 to 500 nM after 1 hrs by Western blot analysis; assay type: cell-based; conditions: dose nM 100-500, time 1.0 hrs
[24] = Intrinsic clearance in mouse liver microsomes at 3 uM measured up to 60 mins by LC-MS analysis; assay type: ADME, Microsome; conditions: read-out: CLH
[25] = Intrinsic clearance in human liver microsomes at 3 uM measured up to 50 mins by LC-MS analysis; assay type: ADME, Microsome; conditions: read-out: CLH

Row | Compound | IC50 [1] | IC50 (cells) | remaining at 1 h, 5 µM [2] | Ki [3] | solubility kinetic at 1.5 h, 500 µM [4] | inhibition [5] | inhibition [6] | microsomal CLint at 1 µM [7] | inhibition (Homo sapiens [8]) | IC50 [11] | solubility kinetic at 2 h [12] | Kinact [13] | Papp B→A at 2 h, 5 µM [14] | IC50 [15] | IC50 [16] | Papp A→B at 2 h, 5 µM [17] | remaining at 1 h, 5 µM [18] | efflux ratio at 2 h, 5 µM [19] | IC50 [20] | microsomal CLint at 1 µM [21] | also measured
1 | C=CC(=O)Nc1cccc(-c2c[nH]c3ncnc(Nc4ccc(CN5C(=O)c6ccccc6C5=O)cc4)c23)c1 | 0.4 nM | 419 nM | 81.3% | 143 nM | 8.3 µM (≈ 4.27 µg/mL) | Dose-dependent effect | Dose-dependent effect | 770 µL/min/mg | Dose-dependent effect | 11 nM | 30 µM (≈ 15.4 µg/mL) | 0.132 min⁻¹ | 1 nm/s | 33 nM | 381 nM | 5 nm/s | 78.1% | 0.2 | 0.2 nM | 96.3 µL/min/mg | inhibition (Homo sapiens [9]): Dose-dependent effect; inhibition [10]: Dose-dependent effect
2 | C=CC(=O)Nc1cc(-c2c[nH]c3ncnc(Nc4ccc(OCc5ccccn5)c(Cl)c4)c23)ccc1OCCN(C)C | 0.09 nM | 164 nM | 0.8% | 49 nM | 60.6 µM (≈ 35.4 µg/mL) | – | – | 866 µL/min/mg | – | 15 nM | 100 µM (≈ 58.4 µg/mL) | 0.212 min⁻¹ | 239 nm/s | 2 nM | 120 nM | 21 nm/s | 74.4% | 11.4 | 0.1 nM | 64.2 µL/min/mg | inhibition [22]: Active; inhibition [23]: Active
3 | C=CC(=O)Nc1cc(-c2c[nH]c3ncnc(Nc4ccc5c(cnn5Cc5ccccc5)c4)c23)ccc1OCCO | 0.07 nM | 508 nM | 88.4% | 67 nM | 16.8 µM (≈ 9.17 µg/mL) | – | – | 603 µL/min/mg | – | 14 nM | 30 µM (≈ 16.4 µg/mL) | 0.138 min⁻¹ | 52 nm/s | 6 nM | 159 nM | 12 nm/s | 90.9% | 4.5 | 0.1 nM | 66 µL/min/mg | inhibition [22]: Active; inhibition [23]: Active
4 | C=CC(=O)Nc1cccc(-c2c[nH]c3ncnc(Nc4ccc(OCc5ccccn5)c(Cl)c4)c23)c1 | 0.08 nM | 161 nM | 49% | 54 nM | – | Dose-dependent effect | Dose-dependent effect | – | Dose-dependent effect | 11 nM | 30 µM (≈ 14.9 µg/mL) | 0.136 min⁻¹ | 6 nm/s | 3.9 nM | 83 nM | 19 nm/s | 79.8% | 0.3 | 0.1 nM | – | microsomal CLint at 3 µM [24]: 125 µL/min/mg; inhibition (Homo sapiens [9]): Dose-dependent effect; inhibition [10]: Dose-dependent effect; microsomal CLint at 3 µM [25]: 27.7 µL/min/mg
